“Also recorded” adds a separate entry of the source.
Legend:
pSTAT3 (Y705) [1] = assay: pSTAT3 knockdown in PC-9 tumors (Example 70); type: in vivo, mice; conditions: gefitinib + Example 32 12.5 and 50 mg/kg BID; 2, 8 and 24 hours after the AM dose, last day
Protocol: (§1) Tumor volume was measured twice a week.

[2] = Drug levels in plasma, H1975 xenograft mice (Example 69); type: in vivo; conditions: increasing dose of Example 32, one day of treatment
Protocol: (§2) Materials and Methods: NCI-H1975 cells (a human NSCLC cell line with L858R and T790M mutations in the EGFR gene) tumor cells were implanted subcutaneously in female NCr nude mice (Taconic Laboratories), 3×10^6 cells/mouse. […] Drug levels in plasma were measured by LC/MS, using a Linear Ion Trap Quadrupole LC/MS/MS Mass Spectrometer (QTRAP 5500 model 1024945-BB, AB Sciex Instruments), with separation on a Waters Xbridge C18 column.

[3] = tested on: LG1049 non-small cell lung cancer PDX tumor xenografts; assay: LG1049 xenograft PDX model, antitumor activity (Example 72); type: in vivo, mice; conditions: for tumor regrowth when treatment was stopped after 28 days: osimertinib single agent or osimertinib + Example 32
Protocol: Summary: LG1049 non-small cell lung cancer PDX tumor xenografts were grown subcutaneously in female NSG mice. […] Tumor volume was measured twice a week.

[4] = LG1049 xenograft PDX model, body weight (Example 72); type: in vivo, mice
Text: Materials and Methods: LG1049 tumor fragments were implanted subcutaneously in female NSG mice (JAX Stock No. 005557). Once tumor volumes reached ˜125-275 mm^3, mice were randomized into 5 groups (10 mice/group, average tumor volume 189 mm^3, range 138-253 mm^3).

[5] = tested on: NCI-H1975 tumor xenografts; assay: H1975 xenograft model, intermittent Example 32 dosing schedules, antitumor activity (Example 73); type: in vivo, mice
Protocol: as §1
Materials and Methods: NCI-H1975 cells (a human NSCLC cell line with L858R and T790M mutations in the EGFR gene), were implanted subcutaneously in female NCr nude mice (Taconic Laboratories), 3×10^6 cells/mouse.

[6] = tested on: NCI-H1650 tumor xenografts; assay: H1650 xenograft model, antitumor activity (Example 71); type: in vivo, mice
Protocol: as §1
(§3) Twenty-three days after cell implantation, the mice were randomized into 6 groups (9 mice/group, average tumor volume 257 mm^3, range 205-303 mm^3). […] Drug levels in plasma were measured by LC/MS, using a Linear Ion Trap Quadrupole LC/MS/MS Mass Spectrometer (QTRAP 5500 model 1024945-BB, AB Sciex Instruments), with separation on a Waters Xbridge C18 column.

pSTAT3 (Y705) [7] = assay: pSTAT3 knockdown in LG1049 tumors (Example 72); type: in vivo, mice; conditions: Example 32 25 mg/kg BID, 5 days of treatment, 4H after the final dose
Protocol: as §1

[8] = tested on: NCI-H1975 tumor xenografts; assay: H1975 xenograft model, antitumor activity (Example 69); type: in vivo, mice
Protocol: as §1
Materials and Methods: NCI-H1975 cells (a human NSCLC cell line with L858R and T790M mutations in the EGFR gene) tumor cells were implanted subcutaneously in female NCr nude mice (Taconic Laboratories), 3×10^6 cells/mouse.

pSTAT3 = pSTAT3 knockdown in NCI-H1650 tumors (Example 71); type: in vivo, mice; conditions: Example 32 as single agent and in combination with gefitinib, after one day of treatment
Protocol: as §1, §3

pSTAT3 (Y705) [9] = assay: pSTAT3 knockdown in NCI-H1975 tumors (Example 69); type: in vivo, mice; conditions: Example 32 12.5, 25, 50 mg/kg BID, after one day of treatment
Protocol: as §1, §2

PC-9 tumor xenografts = assay: PC-9 xenograft model, antitumor activity (Example 70); type: in vivo, mice
Protocol: as §1

pEGFR = pEGFR knockdown in LG1049 tumors (Example 72); type: in vivo, mice; conditions: osimertinib 25 mg/kg QD, 5 days of treatment, 4H after the final dose

For COc1nn(C)cc1Nc1nccc(-c2c[nH]c3c(NC(=O)[C@@H](C)N4CCN(C)CC4)cccc23)n1 [Example 32, (2R)-N-(3-{2-[(3-methoxy-1-methyl-1H-pyrazol-4-yl)amino]pyrimidin-4-yl}-1H-indol-7-yl)-2-(4-methylpiperazin-1-yl)propanamide], the “pSTAT3 knockdown in tumors” value (pSTAT3 (Y705) [1]) was “dose dependent increase in the duration of pSTAT3 knockdown”, the “level of Example 32 in plasma” value [2] was “increasing level of Example 32 in plasma” and the “tumor regrowth when Example 32 treatment was continued after 28 days of combination” value ([3]; Example 32 25 mg/kg BID alone 3 days on/4 days off/wk after the combination) was “tumors also regrew, but more slowly”. The “antitumor activity, single agent Example 32, relative to vehicle” value ([3]; Example 32 25 mg/kg BID oral, 18 days) was “no significant antitumor activity; also recorded: no significant activity relative to vehicle control treatment”, the “tumor regression, combination with osimertinib compared to osimertinib alone” value ([3]; osimertinib 25 mg/kg QD + Example 32 25 mg/kg BID (7 days, then 3 days on/4 days off/wk), 28 days) was “enhanced the tumor regression induced by osimertinib” and the “tumor regrowth when treatment was stopped after 28 days” value [3] was “tumors rapidly regrew”. The “weight loss, single agent” value ([4]; mouse, in vivo) was “significant weight loss”, the “antitumor activity, single agent, relative to vehicle” value ([5]; Example 32 50 mg/kg BID oral, 19 days) was “no significant activity relative to vehicle control treatment” and the “dose dependence of the enhancement of antitumor activity” value (“dose dependence” below) ([5]; Example 32 50 mg/kg BID vs. 25 mg/kg BID with osimertinib) was “greater at the higher dose of Example 32”. The “statistical significance of the difference, combination vs. osimertinib alone” value ([5]; after 26 days of treatment) was “statistically significant after 26 days of treatment at all schedules of Example 32, with the exception of the groups in which Example 32 was dosed only for the first 7 days”, the “enhancement of osimertinib activity by schedule intensity of Example 32 (rank order)” value ([5]; osimertinib 2.5 mg/kg QD + Example 32) was “daily>4 on/3 off>7 on/7 off>2 on/5 off>just first 7 days” and the “antitumor activity of combination with osimertinib compared to osimertinib alone” value ([5]; osimertinib 2.5 mg/kg QD + Example 32, continuous and intermittent schedules) was “enhanced the antitumor activity of osimertinib”. The “antitumor activity, single agent” value ([6]; Example 32 25 or 50 mg/kg BID oral, 21 days) was “only modest antitumor activity”, the “antitumor activity of combination with gefitinib compared to single agent gefitinib” value ([6]; gefitinib 6.25 mg/kg QD + Example 32 25 or 50 mg/kg BID, 21 days) was “enhanced the antitumor activity of gefitinib” and the “dose dependence” value ([6]; gefitinib + Example 32 from 25 mg/kg to 50 mg/kg) was “increased with increasing dose of Example 32”. The “knockdown of pSTAT3 in tumors” value (pSTAT3 (Y705) [7]) was “robust knockdown”, the “antitumor activity, single agent, relative to vehicle” value ([8]; Example 32 12.5, 25 or 50 mg/kg BID oral, 18 days) was “no significant antitumor activity; also recorded: only weak antitumor activity” and the “dose dependence” value ([8]; osimertinib 2.5 mg/kg QD + Example 32 12.5 mg/kg up to 50 mg/kg) was “increased with increasing dose of Example 32”. The “antitumor activity of combination with osimertinib compared to osimertinib alone” value ([8]; osimertinib 2.5 mg/kg QD + Example 32 12.5, 25 or 50 mg/kg BID oral, 18 days) was “enhanced the antitumor activity of osimertinib”, the “pSTAT3 knockdown in tumors” value (pSTAT3) was “Knockdown of pSTAT3 was observed” and the “pSTAT3 knockdown in tumors” value (pSTAT3 (Y705) [9]) was “dose dependent increase in pSTAT3 knockdown”. The “antitumor activity of combination with gefitinib compared to gefitinib” value (PC-9 tumor xenografts; gefitinib 6.25 mg/kg QD + Example 32, oral, 21 days) was “enhanced the antitumor activity of gefitinib”, the “activity of combination compared to single agent gefitinib” value (PC-9 tumor xenografts; gefitinib + 12.5 mg/kg Example 32 daily, and + 50 mg/kg Example 32 2 days on/5 days off) was “greater activity than single agent gefitinib, but did not quite achieve statistical significance” and the “dose dependence” value (PC-9 tumor xenografts; gefitinib + Example 32 from 12.5 mg/kg to 50 mg/kg) was “increased with increasing dose of Example 32”.

With C=CC(=O)Nc1cc(Nc2nccc(-c3cn(C)c4ccccc34)n2)c(OC)cc1N(C)CCN(C)C [osimertinib, reference compound] the “antitumor activity, single agent osimertinib” value ([3]; osimertinib 25 mg/kg QD oral, 28 days) was “tumor regression”, the “tumor regrowth when treatment was stopped after 28 days” value [3] was “tumors rapidly regrew” and the “weight loss, single agent” value ([4]; LG1049 tumor bearing NSG mice, weight loss ascribed to tumor growth) was “lack of significant weight loss”. For the same compound, the “knockdown of pEGFR in tumors” value (pEGFR) was “robust knockdown”.

From patent US10654835B2, “Compounds and methods for inhibiting JAK” (Dizal (Jiangsu) Pharmaceutical Co., Ltd., priority 2015, dated 2020)
